Results reported in patent US8158621B2, “Methods of treating or preventing autoimmune diseases with 2,4-pyrimidinediamine compounds” (Rigel Pharmaceuticals, Inc., priority 2002, dated 2012).
Read-outs that look alike come from different tables or passages of the source.

Tested on: cultured human mast cells (CHMC)
Assay: CHMC low cell density IgE activation: tryptase assay
Assay type: cell-based
Conditions: read-out: CHMC anti-IgE Tryptase
Description: Pellet CHMC cells (980 rpm, 10 min) and resuspend in pre-warmed MT. Add 65 ul of cells to each 96-well plate. Depending on the degranulation activity for each particular CHMC donor, load 1000-1500 cells/well. Mix four times followed by a 1 hr incubation at 37° C. […] Stimulate cells by adding 25 ul of 6× anti-IgE solution to the appropriate plates. Add 25 ul MT to un-stimulated control wells. Mix twice following addition of the anti-IgE. Incubate at 37° C. for 30 minutes. […] Spin plates at 1000 rpm for 10 min to pellet cells. Transfer 25 ul of supernatant to a 96-well black bottom plate and add 100 ul of freshly diluted tryptase substrate solution to each well. Incubate plates at room temperature for 30 min.

[1] = Homo sapiens, Mast cell, Low Density

Row | IC50 (low cell density) [nM] | IC50 [1] [nM] | SMILES
1 | 701 |  | COC(=O)c1ccc(Cn2ncc3ccc(Nc4ncc(F)c(Nc5ccc6c(c5)NC(=O)C(C)(C)O6)n4)cc32)c(OC)c1 [Compound R935442]
2 | > 10000 |  | COc1ccc(Nc2nc(Nc3cc(Cl)c(OC)c(Cl)c3)ncc2F)cc1Cl [Compound R927054]
3 | 1890 |  | CNC(=O)COc1cccc(Nc2ncc(F)c(Nc3ccc4c(c3)C(NS(=O)(=O)c3ccc(C)cc3)CCO4)n2)c1 (racemic) [Compound R950493]
4 | 668 |  | CCN(CC)CCNC(=O)c1ccc(Nc2ncc(F)c(Nc3ccc4c(c3)NC(=O)C(F)(F)O4)n2)cc1 [Compound R950449]
5 | 244 |  | CC(C)(C)OC(=O)NCc1ccc(Nc2ncc(F)c(Nc3ccc4c(c3)NC(=O)C(F)(F)O4)n2)cc1 [Compound R950464]
6 | > 10000 |  | CNC(=O)COc1cccc(Nc2ncc(F)c(Nc3ccc4c(c3)C(NS(C)(=O)=O)CCO4)n2)c1 (racemic) [Compound R950494]
7 | 167 |  | COc1cc(Nc2ncc(F)c(Nc3ccc4cn[nH]c4c3)n2)cc(OC)c1 [Compound R935423]
8 | 1120 |  | CNC(=O)COc1cccc(Nc2ncc(F)c(NC3CCC3)n2)c1 [Compound R945387]
9 | 628 |  | Cn1ncc2ccc(Nc3nc(Nc4ccc5c(c4)NC(=O)C(C)(C)O5)ncc3F)cc21 [Compound R935424]
10 | 237 |  | Fc1cc(Nc2nc(Nc3ccc4[nH]ncc4c3)ncc2F)ccc1Cl [Compound R935415]
11 | 46 |  | CNC(=O)COc1cccc(Nc2ncc(F)c(Nc3ccc4c(c3)NC(=O)C(F)(F)O4)n2)c1 [Compound R945415]
12 | 64 |  | COc1cc(Nc2ncc(F)c(Nc3ccc4c(c3)NC(=O)C(C)(C)O4)n2)cc(OC)c1 [Compound R927072]
13 | > 10000 |  | Cn1ncc2cc(Nc3ncc(F)c(Nc4ccc(F)c(Cl)c4)n3)ccc21 [Compound R935426]
14 | 389 |  | OCCCn1ncc2ccc(Nc3ncc(F)c(Nc4ccc(Cl)c(Cl)c4)n3)cc21 [Compound R935405]
15 | 877 |  | CCOC(=O)CCn1ncc2cc(Nc3ncc(F)c(Nc4ccc(Cl)c(Cl)c4)n3)ccc21 [Compound R935389]
16 | > 10000 |  | CC(=O)N(C)c1ccc(Nc2nc(NC3CC3)ncc2F)cc1 [Compound R945375]
17 | > 10000 |  | Cn1ncc2ccc(Nc3nc(Cl)ncc3F)cc21 [Compound R935394]
18 | 291 |  | OCCCn1ncc2cc(Nc3ncc(F)c(Nc4ccc(F)c(F)c4)n3)ccc21 [Compound R935386]
19 | 145 |  | COC(=O)COc1cccc(Nc2ncc(F)c(Nc3ccc4c(n3)NC(=O)C(C)(C)O4)n2)c1 [Compound R940392]
20 | 754 |  | CNC(=O)COc1cccc(Nc2ncc(F)c(Nc3cccc(OCC(=O)NC)c3)n2)c1 [Compound R945378]
21 | 22700 |  | COc1c(C)cc(Nc2ncc(F)c(Nc3ccc4c(c3)OCCO4)n2)cc1C [Compound R940396]
22 | 1090 |  | COc1cc(Nc2nc(Nc3ccc(C(N)=O)cc3)ncc2F)cc(OC)c1 [Compound R950450]
23 | 5260 |  | Cc1cc(Nc2ncc(F)c(Nc3ccc4c(c3)OCCO4)n2)cc(Cl)c1O [Compound R940393]
24 | 890 |  | COc1ccc(Nc2ncc(F)c(Nc3ccc4c(c3)NC(=O)C(C)(C)O4)n2)c(OC)n1 [Compound R927068]
25 | 1390 |  | COC(=O)N1CCN(c2ccc(Nc3ncc(F)c(NC4CCC4)n3)cc2)CC1 [Compound R945386]

Row | IC50 (low cell density) [nM] | IC50 [1] [nM] | SMILES
26 |  | > 10000 | CN(C=C1C=CC=C(Nc2nc(Cl)ncc2F)C1)C(=O)OC(C)(C)C [Compound R940315]
27 | 3970 |  | CC(C)(C)OC(=O)NC1CCOc2ccc(Nc3nc(Nc4ccc(Cl)c(Cl)c4)ncc3F)cc21 (racemic) [Compound R950429]
28 | 678 |  | COc1ccc(Nc2nc(Nc3ccc4c(c3)CC(C(=O)N(C)C)O4)ncc2F)cc1Cl (stereo not shown) [Compound R927052]
29 | 276 |  | Cc1cc(Nc2ncc(F)c(Nc3ccc4cnn(C)c4c3)n2)cc(Cl)c1O [Compound R935395]
30 | > 10000 |  | CC(C)(C)OC(=O)NCc1ccc(Nc2ncc(F)c(Nc3ccc4c(c3)C(=O)NC(=O)C4(C)C)n2)cc1 [Compound R950462]
31 | 1170 |  | CNC(=O)CCn1ncc2ccc(Nc3ncc(F)c(Nc4ccc(OC)c(Cl)c4)n3)cc21 [Compound R935409]
32 | 370 |  | CNC(=O)COc1cccc(Nc2ncc(F)c(Nc3cc(Cl)c(OC)c(Cl)c3)n2)c1 [Compound R927057]
33 | > 10000 |  | Fc1cnc(NC2CCC2)nc1NC1CCC1 [Compound R945380]
34 |  | > 10000 | Fc1cnc(Cl)nc1Nc1ccc2ncccc2c1 [Compound R920409]
35 | > 10000 |  | CC(=O)N(C)c1ccc(Nc2nc(NC3CCC3)ncc2F)cc1 [Compound R945379]
36 | 12200 |  | COc1c(Cl)cc(Nc2ncc(F)c(Nc3ccc(Cl)c(Cl)c3)n2)cc1Cl [Compound R927058]
37 | 16500 |  | Cc1cc(Nc2ncc(F)c(Nc3ccc4c(n3)NC(=O)C(C)(C)O4)n2)cc(Cl)c1O [Compound R940394]
38 | 371 |  | CCN(C(C)=O)c1ccc(Nc2ncc(F)c(Nc3ccc4c(n3)NC(=O)CO4)n2)cc1 [Compound R945421]
39 | 66.8 |  | COc1cc(Nc2ncc(F)c(Nc3ccc4c(c3)NC(=O)C(C)(C)O4)n2)cc(OC)c1 [Compound R927073]
40 | > 10000 |  | COC(=O)N1CCN(c2ccc(Nc3nc(NC4CCC4)ncc3F)cc2)CC1 [Compound R945374]
41 | 544 |  | CNC(=O)CCn1ncc2cc(Nc3ncc(F)c(Nc4ccc(Cl)c(Cl)c4)n3)ccc21 [Compound R935390]
42 | > 10000 |  | COc1cc(Nc2nc(N[C@@H]3CCCC[C@H]3N)ncc2F)cc(OC)c1 [Compound R950439]
43 | 913 |  | CNC(=O)COc1cccc(Nc2ncc(F)c(Nc3ccc(OC4CCC(NC(=O)OC(C)(C)C)CC4)c(Cl)c3)n2)c1 (mixture of isomers) [Compound R945384]
44 | 379 |  | CCN(CC)CCNC(=O)c1ccc(Nc2ncc(F)c(Nc3ccc(Cl)c(Cl)c3)n2)cc1 [Compound R950445]
45 | 67 |  | COc1cc(Nc2ncc(F)c(Nc3ccc4c(c3)NC(=O)C(C)(C)O4)n2)cc(OC)c1 [Compound R927071]
46 | > 10000 |  | Fc1cnc(NC2CC2)nc1NC1CC1 [Compound R945376]
47 | 510 |  | Cn1ncc2ccc(Nc3ncc(F)c(Nc4ccc(F)c(F)c4)n3)cc21 [Compound R935401]
48 | 417 |  | COc1cc(Nc2nc(Nc3ccc4c(cnn4C)c3)ncc2F)ccc1F [Compound R935410]
49 | 345 |  | COc1cc(Nc2ncc(F)c(Nc3ccc(N4CCOCC4)c(Cl)c3)n2)cc(OC)c1 [Compound R926986]
50 | 230 |  | COc1c(C)cc(Nc2ncc(F)c(Nc3ccc4cnn(C)c4c3)n2)cc1Cl [Compound R935419]

Row | IC50 (low cell density) [nM] | IC50 [1] [nM] | SMILES
51 | 985 |  | CC(=O)N(C)c1ccc(Nc2ncc(F)c(NC3CCC3)n2)cc1 [Compound R945383]
52 | 10000 |  | COc1cc(Nc2ncc(F)c(Nc3ccc(N4CCOCC4)c(Cl)c3)n2)cc(C(F)(F)F)c1 [Compound R926987]
53 | 561 |  | COc1cc(Nc2ncc(F)c(Nc3ccc4cnn(C)c4c3)n2)cc(OC)c1 [Compound R935420]
54 | 599 |  | Cc1cccc(C)c1Nc1ncc(F)c(Nc2ccc(Cl)c(Cl)c2)n1 [Compound R927079]
55 | 261 |  | COc1c(C)cc(Nc2ncc(F)c(Nc3ccc4c(n3)NC(=O)C(C)(C)O4)n2)cc1Cl [Compound R940391]
56 | > 10000 |  | CCCCOc1ccc(Nc2ncc(F)c(Nc3ccc4c(n3)NC(=O)CO4)n2)cc1 [Compound R945408]
57 | > 10000 |  | C[C@@H]1Oc2ccc(Nc3nc(N[C@@H]4CCCC[C@H]4N)ncc3F)cc2NC1=O [Compound R950441]
58 | > 10000 |  | O=C1COc2ccc(Nc3nc(Nc4ccc(OCc5ccccc5)cc4)ncc3F)nc2N1 [Compound R945410]
59 | 581 |  | CNC(=O)CCn1ncc2ccc(Nc3ncc(F)c(Nc4ccc(Cl)c(Cl)c4)n3)cc21 [Compound R935404]
60 | 216 |  | COc1ccc(Nc2nc(Nc3ccc4cnn(C)c4c3)ncc2F)cc1Cl [Compound R935402]
61 | 3700 |  | COc1c(C)cc(Nc2ncc(F)c(Nc3ccc4c(c3)OCCO4)n2)cc1Cl [Compound R940397]
62 | 2580 |  | COC(=O)c1ccc(Cn2cc3ccc(Nc4ncc(F)c(Nc5ccc(Cl)c(Cl)c5)n4)cc3n2)c(OC)c1 [Compound R935396]
63 | > 10000 |  | Cn1ncc2cc(Nc3ncc(F)c(Nc4ccc(Cl)c(F)c4)n3)ccc21 [Compound R935411]
64 | > 10000 |  | COc1c(Cl)cc(Nc2ncc(F)c(Nc3ccc(OC(F)(F)F)c(Cl)c3)n2)cc1Cl [Compound R927055]
65 | 284 |  | CNC(=O)COc1cccc(Nc2ncc(F)c(Nc3ccc(OC(C)C)c(Cl)c3)n2)c1 [Compound R926973]
66 | 821 |  | CCOC(=O)CCn1ncc2ccc(Nc3ncc(F)c(Nc4ccc(Cl)c(Cl)c4)n3)cc21 [Compound R935403]
67 | 1170 |  | CCOC(=O)CCn1ncc2ccc(Nc3ncc(F)c(Nc4ccc(OC)c(Cl)c4)n3)cc21 [Compound R935406]
68 | 2460 |  | CC1(C)C(=O)NC(=O)c2cc(Nc3nc(Nc4ccc(CN)cc4)ncc3F)ccc21 [Compound R950463]
69 | 301 |  | CNC(=O)COc1cccc(Nc2ncc(F)c(Nc3ccc4c(c3)C(NC)CCO4)n2)c1 (racemic) [Compound R950412]
70 | 909 |  | CNC(=O)c1ccc(Cn2ncc3ccc(Nc4ncc(F)c(Nc5ccc6c(c5)OCCO6)n4)cc32)c(OC)c1 [Compound R935399]
71 | 436 |  | CC(=O)N(C)c1ccc(Nc2ncc(F)c(Nc3ccc4c(n3)NC(=O)CO4)n2)cc1 [Compound R945420]
72 | 928 |  | COc1c(Cl)cc(Nc2ncc(F)c(NC3CCC3)n2)cc1Cl [Compound R945397]
73 | 502 |  | Fc1ccc(Nc2nc(Nc3ccc4cn[nH]c4c3)ncc2F)cc1F [Compound R935400]
